Where two headings read alike, the source gives them in different places.
System: HT-29 cells
Test: Additional cytotoxicity assays, resazurin (Table 3.1)
Type: cell-based, human
Conditions: for EC50: Homo sapiens
Description: 10× concentrated serial dilutions of the two compounds were prepared in appropriate culture medium for final concentrations ranging from 2.0×10^−5 M to 2.0×10^−10 M. Ten μl volumes of the 10× serial dilutions were added to the test wells in triplicate and the plates returned to the incubator for 48 hours.
Following 48 hours of drug exposure 10 μl of 0.2 mg/ml resazurin (obtained from Sigma-Aldrich Chemical Co.) in Mg^2+, Ca^2+ free PBS was added to each well and the plates were returned to the incubator for 3-4 hours. […] Resazurin dye without cells was used to determine the background, which was subtracted from the data for all experimental wells. The data were analyzed using Prism software (GraphPad Software).
Additional cytotoxicity assays were performed as described above under this example, using Resazurin fluorescence as an indicator of cell viability.

[1] = HT-29, Table 3.1, read-out: EC50 (M) Mean

| SMILES | EC50 [1] [M] | % cytotox Mean (Table 3.1) [%] | EC50 (HT-29, read-out: EC50 (M) Mean) [M] |
| --- | --- | --- | --- |
| C=CC(C)(C)c1[nH]cnc1/C=C1\N=C(OC)C(Cc2ccccc2)N=C1OC (racemic) [Compound 2354, D,L-bislactim-PLH] | > 2e-05 | 4 | – |
| C=CC(C)(C)c1[nH]cnc1/C=C1\NC(=O)C(Cc2ccccc2)N=C1OC (racemic) [Compound 2355, D,L-monolactim-PLH] | > 2e-05 | 13 | – |
| C=CC(C)(C)c1[nH]cnc1/C=C1\NC(=O)[C@H](Cc2ccccc2)NC1=O [Compound 2350, (−)-(S)-Halimide, (−)-(S)-Phenylahistin, (−)-(S)-PLH, reference compound] | 3.94e-07 | 87 | – |
| C=CC(C)(C)c1[nH]cnc1/C=c1\[nH]c(=O)/c(=C/c2ccccc2)[nH]c1=O [Compound 2352, Dehydrophenylahistin] | 4.26e-08 | 86 | – |
| C=CC(C)(C)c1[nH]cnc1/C=c1\[nH]c(=O)/c(=C\c2ccc(OC)cc2)[nH]c1=O [Compound 2357] | 8.25e-06 | 63 | – |
| CC(C)(C)c1[nH]cnc1/C=c1\[nH]c(=O)/c(=C/c2ccccc2)[nH]c1=O [Compound 2358, t-butyl-delta-PLH] | – | 86 | 1.49e-08 |
| COc1cc(/C=c2\[nH]c(=O)/c(=C/c3nc[nH]c3C(C)(C)C)[nH]c2=O)cc(OC)c1OC [Compound 2362, tBu-ΔPLH-3,4,5-triOMe] | – | 78 | 8.19e-06 |
| COc1cc(/C=c2\[nH]c(=O)/c(=C/c3nc[nH]c3C(C)(C)C)[nH]c2=O)cc(OC)c1 [Compound 2367, tBu-delta-3,5-diOMe] | 4.54e-08 | 87 | – |
| COc1ccc(/C=c2\[nH]c(=O)/c(=C/c3nc[nH]c3C(C)(C)C)[nH]c2=O)c(OC)c1OC [Compound 2368, tBu-delta-PLH-2,3,4-triOMe] | 4.8e-06 | 78 | – |
| CC(C)(C)c1[nH]cnc1/C=c1\[nH]c(=O)/c(=C/c2cc([N+](=O)[O-])ccc2Cl)[nH]c1=O [Compound 2371, tBu-delta-PLH-2-Cl-5-NO2] | 5.34e-08 | 86 | – |
| CC(C)(C)c1[nH]cnc1/C=c1\[nH]c(=O)/c(=C/c2ccc3c(c2)OCO3)[nH]c1=O [Compound 2372, tBu-delta-PLH-3,4-methylene-dioxy] | 8.73e-08 | 84 | – |
| COc1cccc(/C=c2\[nH]c(=O)/c(=C/c3nc[nH]c3C(C)(C)C)[nH]c2=O)c1O [Compound 2373, tBu-delta-PLH-2-OH-3-OMe (o-vanillin)] | 5.36e-06 | 79 | – |
| COc1cccc2cc3c(=O)[nH]/c(=C\c4nc[nH]c4C(C)(C)C)c(=O)n3c12 [Compound 2374, tBu-delta-PLH-cyclized-3-MeO] | 6.92e-06 | 58 | – |
| Cc1ccc(/C=c2\[nH]c(=O)/c(=C/c3nc[nH]c3C(C)(C)C)[nH]c2=O)s1 [Compound 2378, tBu-delta-PLH-5-Me-2-thienyl] | 8.52e-08 | 85 | – |
| Cc1ccsc1/C=c1\[nH]c(=O)/c(=C/c2nc[nH]c2C(C)(C)C)[nH]c1=O [Compound 2379, tBu-delta-PLH-3-Me-2-thienyl] | 4.7e-08 | 86 | – |
| CC(C)(C)c1[nH]cnc1/C=c1\[nH]c(=O)/c(=C/c2cccc3c2OCO3)[nH]c1=O [Compound 2381, tBu-delta-PLH-2,3-methylendioxy] | 5.2e-07 | 82 | – |
| Cc1cccc(/C=c2\[nH]c(=O)/c(=C/c3nc[nH]c3C(C)(C)C)[nH]c2=O)n1 [Compound 2384, tBu-delta-PLH-3-Me-2-pyridyl] | > 2e-05 | 37 | – |
| Cc1[nH]cnc1/C=c1\[nH]c(=O)/c(=C/c2nc[nH]c2C(C)(C)C)[nH]c1=O [Compound 2387, tBu-delta-PLH-5-Me-4-im] | 2.35e-06 | 84 | – |
| CC(C)(C)c1[nH]cnc1/C=c1\[nH]c(=O)/c(=C/c2ccc(C#N)cc2)[nH]c1=O [Compound 2394, tBu-delta-PLH-p-CN] | > 2e-05 | 14 | – |
| COc1cc(OC)c(/C=c2\[nH]c(=O)/c(=C/c3nc[nH]c3C(C)(C)C)[nH]c2=O)c(OC)c1 [Compound 2396, tBu-delta-PLH-2,4,6-TriOMe] | > 2e-05 | 2 | – |
| CC(C)(C)c1[nH]cnc1/C=c1\[nH]c(=O)/c(=C/c2cc(Cl)ccc2[N+](=O)[O-])[nH]c1=O [Compound 2403, tBu-delta-PLH-2-NO2-5-Cl] | 9.97e-08 | 86 | – |
| COc1ccc(O)c(/C=c2\[nH]c(=O)/c(=C/c3nc[nH]c3C(C)(C)C)[nH]c2=O)c1 [Compound 2405, tBu-delta-PLH-2-OH-5-OMe] | > 2e-05 | 25 | – |
| CC(C)(C)c1[nH]cnc1/C=c1\[nH]c(=O)/c(=C/c2cc(Br)ccc2O)[nH]c1=O [Compound 2407, tBu-delta-PLH-2-OH-5-Br] | > 2e-05 | 13 | – |

| SMILES | EC50 [1] [M] | % cytotox Mean (Table 3.1) [%] | EC50 (HT-29, read-out: EC50 (M) Mean) [M] |
| --- | --- | --- | --- |
| COc1ccc(/C=c2\[nH]c(=O)/c(=C/c3nc[nH]c3C(C)(C)C)[nH]c2=O)cc1O [Compound 2408, tBu-delta-PLH-3-OH-4-OMe] | 7.48e-06 | 66 | – |
| COc1ccc(/C=c2\[nH]c(=O)/c(=C/c3nc[nH]c3C(C)(C)C)[nH]c2=O)c(O)c1 [Compound 2409, tBu-delta-PLH-2-OH-4-OMe] | > 2e-05 | 8 | – |
| CC(C)(C)c1[nH]cnc1/C=c1\[nH]c(=O)/c(=C/c2cc(Cl)ccc2O)[nH]c1=O [Compound 2410, tBu-delta-PLH-2-OH-5-Cl] | > 2e-05 | 37 | – |
| CC(C)(C)c1[nH]cnc1/C=c1\[nH]c(=O)/c(=C/c2ccc(Cl)s2)[nH]c1=O [Compound 2412, tBu-delta-PLH-5-Cl-2-thionyl] | – | 85 | 1.65e-07 |
| Cn1cccc1/C=c1\[nH]c(=O)/c(=C/c2nc[nH]c2C(C)(C)C)[nH]c1=O [Compound 2414, tBu-delta-PLH-N-Me-2-pyrrole] | 1.17e-07 | 88 | – |
| CC(C)(C)c1[nH]cnc1/C=c1\[nH]c(=O)/c(=C/c2cc(Cl)cc(Cl)c2)[nH]c1=O [Compound 2415, tBu-delta-PLH-3,5-diCl] | 9.49e-08 | 87 | – |
| CC(C)(C)c1ccc(O)c(/C=c2\[nH]c(=O)/c(=C/c3ccccc3)[nH]c2=O)c1 [Compound 2422, tBu-delta-PLH-2-Hydroxybenzyl] | > 2e-05 | 14 | – |
| CC(C)(C)c1[nH]cnc1/C=c1\[nH]c(=O)/c(=C/c2cc(Br)cs2)[nH]c1=O [Compound 2423, tBu-delta-PLH-4-Br-2-thionyl] | 1.71e-07 | 86 | – |
| CCc1ccc(/C=c2\[nH]c(=O)/c(=C/c3nc[nH]c3C(C)(C)C)[nH]c2=O)s1 [Compound 2424, tBu-delta-PLH-5-Et-2-thionyl] | 1.32e-07 | 87 | – |
| CC(C)(C)c1[nH]cnc1/C=c1\[nH]c(=O)/c(=C/c2ccc(Br)o2)[nH]c1=O [Compound 2425, tBu-delta-PLH-5-Br-2-furyl] | 3.05e-08 | 87 | – |
| CCc1ccc(/C=c2\[nH]c(=O)/c(=C/c3nc[nH]c3C(C)(C)C)[nH]c2=O)o1 [Compound 2426, tBu-delta-PLH-5-Et-2-furyl] | 2.42e-07 | 86 | – |
| CC(C)(C)c1[nH]cnc1/C=c1\[nH]c(=O)/c(=C/c2cc(I)ccc2F)[nH]c1=O [Compound 2428, tBu-delta-PLH-2-F-5-I] | 4.17e-08 | 87 | – |
| CSc1ccccc1/C=c1\[nH]c(=O)/c(=C/c2nc[nH]c2C(C)(C)C)[nH]c1=O [Compound 2429, tBu-delta-PLH-2-(Methylthio)] | 2.86e-08 | 87 | – |
| CC(C)(C)c1[nH]cnc1/C=c1\[nH]c(=O)/c(=C/c2cccc(OC(F)(F)F)c2)[nH]c1=O [Compound 2430, tBu-delta-PLH-m-OCF3] | 1.43e-08 | 87 | – |
| COc1ccc(F)c(/C=c2\[nH]c(=O)/c(=C/c3nc[nH]c3C(C)(C)C)[nH]c2=O)c1 [Compound 2431, tBu-delta-PLH-2-F5-OMe] | 2.03e-08 | 88 | – |
| COc1cc(/C=c2\[nH]c(=O)/c(=C/c3nc[nH]c3C(C)(C)C)[nH]c2=O)ccc1F [Compound 2432, tBu-delta-PLH-4-F-3-OMe] | 4.93e-07 | 85 | – |
| CC(C)(C)c1ccc(O)c(/C=c2\[nH]c(=O)/c(=C/c3nc[nH]c3C(C)(C)C)[nH]c2=O)c1 [Compound 2433, tBu-delta-PLH-2-OH-5-tBU] | 8.53e-06 | 80 | – |
| Cc1c(F)cccc1/C=c1\[nH]c(=O)/c(=C/c2nc[nH]c2C(C)(C)C)[nH]c1=O [Compound 2435, tBu-delta-PLH-2-Me-3-F] | 3.34e-08 | 86 | – |
| Cc1ccc(F)c(/C=c2\[nH]c(=O)/c(=C/c3nc[nH]c3C(C)(C)C)[nH]c2=O)c1 [Compound 2436, tBu-delta-PLH-2-F-5-Me] | 2.5e-08 | 86 | – |
| Cc1cccc(/C=c2\[nH]c(=O)/c(=C/c3nc[nH]c3C(C)(C)C)[nH]c2=O)c1C [Compound 2439, tBu-delta-PLH-2,3-di-Me] | 2.96e-09 | 87 | – |
| COc1cccc(/C=c2\[nH]c(=O)/c(=C/c3nc[nH]c3C(C)(C)C)[nH]c2=O)c1[N+](=O)[O-] [Compound 2441, tBu-delta-PLH-2-NO2-3-OMe] | 6.63e-07 | 83 | – |
| Cc1ccc(C)c(/C=c2\[nH]c(=O)/c(=C/c3nc[nH]c3C(C)(C)C)[nH]c2=O)c1 [Compound 2442, tBu-delta-PLH-2,5-diMe] | 8.82e-08 | 87 | – |

Source: US8129527B2, “Analogs of dehydrophenylahistins and their therapeutic use” (Nereus Pharmacuticals, Inc., priority 2006, dated 2012)
